Read-outs that look alike come from different tables or passages of the source.
Assays:
beta-TC6 cells [1] = experiment: Insulin release in high glucose medium, rat/mouse insulin ELISA; assay type: cell-based; details: for activation at 5 µM / fold induction at 5 µM: Mus musculus, Beta-TC6, 2 h; for fold induction at 5 µM: high glucose (4.5 g/L)
Procedure: Cells were cultured overnight, washed with PBS and then treated with 5 µM of test compounds as well as non-inhibitor controls for 2 h in a high glucose (4.5 g/L) DMEM at 37°C and 5 % (v/v) CO2. Release of insulin was detected using a rat/mouse insulin ELISA.
After incubation, the supernatant of the beta-TC6 insulinoma cells was diluted 1:20, whereas the supernatants of the RIN-T2B-5AH were diluted 1:10. The insulin release was measured with rat/mouse insulin ELISA (Merck Millipore Darmstadt, Cat. # EZRMI-13K) by following the manufacture's protocol. The enzyme activity of the horseradish peroxidase of the immobilized biotinylated antibodies was monitored spectrophotometrically by the increased absorbency at 490 nm, and corrected by the absorbency at 610 nm.
Afterwards, the supernatant was analyzed for insulin using the rat/mouse insulin ELISA (Merck Millipore Darmstadt, Cat. # EZRMI-13K) by following the manufacture's protocol..
Cells were treated for 2 h in a high glucose (4.5 g/L) DMEM media at 37°C and 5 % (v/v) CO2. Insulin release was analyzed using the rat/mouse insulin ELISA.

GRK5 = target: T1, GRK5 (Homo sapiens, UniProt P34947); experiment: GRK5 radiometric filtration binding assay (Millipore KinaseProfiler); assay type: biochemical; details: Table 6
T1 construct: purchased Millipore (KinaseProfiler service)
Procedure: As alternative, IC50 values are determined by a radiometric based filtration binding assay, namely Millipore KinaseProfiler™. GRK5 is incubated with 8 mM MOPS pH7.0, 0.2 mM EDTA, 2 mg/mL casein, 10 mM MgAcetate and […] (specific activity approx. 500 cpm/pmol, concentration as required). The reaction is initiated by the addition of the MgATP mix. After incubation for 40 minutes at room temperature, the reaction is stopped by the addition of 3 % phosphoric acid solution. 10 µL of the reaction is then spotted onto a P30 filtermat and washed three times for 5 minutes in 75 mM phosphoric acid and once in methanol prior to drying and scintillation counting.

[2] = tested on: 3T3-L pre-adipocytes differentiated to matured adipocytes; experiment: Insulin dependence of 2-NBDG uptake in matured adipocytes; assay type: cell-based; details: compound added beside 10 µg/ml insulin, 1 h, 100 µM 2-NBDG; Figure 12
Procedure: To investigate if the 2-NBDG uptake of the inventive compound inhibitors of Scyl1 and GRK5 are insulin dependent, 3T3-L pre-adipocytes were differentiated to matured adipocytes. Afterwards, cells were starved for 4 h before they were washed and glucose free media supplied with 100 µM 2-NBDG, in the presence and absence of 10 µg/ml insulin and either Cpd 10 (Scyl1) of Cpd 1 (Grk5) was added for 1 h at 37 °C. Furthermore, as internal controls, samples of glucose free media or glucose free media with compound were measured (data not shown). Fluorescence was analyzed by flow cytometer (FACS Calibur, BD Bioscience, respectively a BD Accuri® C6 Flow Cytometer). For evaluation, cells were gated using the side- and forward scatter SSC/FSC and quantified by excited at 488 and detected at 533 nm (FL1).

beta-TC6 cells [3] = experiment: Insulin HTRF assay, relative activity Ar normalized to sunitinib; assay type: cell-based; details: Mus musculus, normalized to positive control sunitinib (5 µM = 100%), Table 10
How it was run: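 Relative activity Ar was scaled between 0% and 100% controls, with sunitinib at 5 µM f.c. as reference. Insulin released by beta-TC6 cells was quantified by sandwich HTRF (Eu-cryptate/XL665 antibodies, 120 min RT). Cells had been seeded 24 or 48 h, then treated 2–4 h at 37°C in induction buffer, 0.5% DMSO.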

beta-TC6 cell system = experiment: Comparison of insulin release with commercially available inhibitors, mouse/rat insulin ELISA; assay type: cell-based; details: Mus musculus, Beta-TC6; 5µM, 2 h; DMSO = 0; Table 9
Procedure: Based on literature references, several commercially available inhibitors were compared with compounds according to the invention. […] Cells were cultured for 24 h before treated with the inventive compounds and control inhibitors for 2 h at 37 °C and 5 % (v/v) CO2. Insulin in the supernatant was detected by mouse/rat insulin ELISA.

beta-TC6 cells [4] = experiment: Insulin release in high glucose medium, rat/mouse insulin ELISA; assay type: cell-based; details: 2 h, high glucose (4.5 g/L)
C2C12 cells = experiment: 2-NBDG glucose uptake by flow cytometry; details: for fold induction at 5 µM: Mus musculus, C2C12, 1 h, read-out: Ratio of 2-NBDG uptake
Procedure: (§1) Furthermore, as internal controls, samples of glucose free media, respectively glucose free media with test compound, were tested. Subsequently, cells were washed, trypsinized and harvested in ice-cold PBS before centrifuged at 1.6 x10^3 rpm at 4°C. Cells were analyzed by flow cytometry (FACS Calibur, BD Bioscience, respectively a BD Accuri® C6 Flow Cytometer).
(§2) To investigate the impact of the Grk5 inhibitors on Glucose uptake, cells were cultured 1 h in glucose free media supplied with 100 µM 2-NBDG at 37 °C and 5 % (v/v) CO2. Furthermore, as internal controls, samples of glucose free media, respectively glucose free media with test compounds, were measured. Fluorescence was analyzed by flow cytometer (FACS Calibur, BD Bioscience, respectively a BD Accuri® C6 Flow Cytometer).

beta-TC6 cells [5] = experiment: 2-NBDG glucose uptake by flow cytometry; details: Mus musculus, Beta-TC6, 1 h, read-out: Ratio of 2-NBDG uptake
Procedure: as §1, §2

T1 sequence (P34947 whole entry): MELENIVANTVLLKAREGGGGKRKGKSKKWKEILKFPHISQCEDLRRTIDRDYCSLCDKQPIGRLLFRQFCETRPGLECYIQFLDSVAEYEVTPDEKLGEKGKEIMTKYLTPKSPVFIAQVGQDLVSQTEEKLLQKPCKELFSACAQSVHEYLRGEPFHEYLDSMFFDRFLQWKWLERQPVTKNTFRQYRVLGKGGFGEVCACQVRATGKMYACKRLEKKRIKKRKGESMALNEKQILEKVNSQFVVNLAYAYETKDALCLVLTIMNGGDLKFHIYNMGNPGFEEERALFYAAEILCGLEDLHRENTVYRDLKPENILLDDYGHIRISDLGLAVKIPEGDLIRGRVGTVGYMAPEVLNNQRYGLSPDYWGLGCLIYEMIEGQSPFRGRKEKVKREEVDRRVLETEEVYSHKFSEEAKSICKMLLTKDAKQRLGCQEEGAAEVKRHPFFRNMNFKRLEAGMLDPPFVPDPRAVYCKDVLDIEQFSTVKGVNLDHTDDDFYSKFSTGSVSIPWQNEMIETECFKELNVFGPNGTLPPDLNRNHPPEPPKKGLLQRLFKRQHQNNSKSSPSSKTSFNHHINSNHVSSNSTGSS

| Structure (SMILES) | activation at 5 µM (beta-TC6 cells [1]; high glucose (4.5 g/L) DMEM, Example 9, Figure 6, ± SEM, read-out: increase of insulin release) [%] | fold induction at 5 µM (beta-TC6 cells [1]; 0 µM = 1, Table 7) | IC50 (GRK5) [µM] | additional (insulin independent) increase [2] [%] | Emax (beta-TC6 cells [3]) [%] | activation at 5 µM (beta-TC6 cell system) [%] | fold induction at 2 µM (beta-TC6 cells [4]; 0 µM = 1, Table 7) | fold induction at 10 µM (beta-TC6 cells [4]; 0 µM = 1, Table 7) | uptake of 2-NBDG compared with negative control background (C2C12 cells; C2C12, 1 h compound treatment, Figure 10) | fold induction at 5 µM (C2C12 cells) | fold induction at 5 µM (beta-TC6 cells [5]) | increase of insulin release (beta-TC6 cells [1]; 5 µM, 2 h, high glucose (4.5 g/L) DMEM, Example 4, Figure 2) [%] | activation at 5 µM (beta-TC6 cells [1]; high glucose (4.5 g/L) DMEM, Example 4, Figure 2, read-out: increase of insulin release) [%] | fold induction at 5 µM (beta-TC6 cells [1]; 0 µM = 1, Table 3) | fold induction at 2 µM (beta-TC6 cells [4]; 0 µM = 1, Table 3) | fold induction at 10 µM (beta-TC6 cells [4]; 0 µM = 1, Table 3) |
| --- | --- | --- | --- | --- | --- | --- | --- | --- | --- | --- | --- | --- | --- | --- | --- | --- |
| NC(=O)c1ccc(-c2cnc3ccc(Cc4ccc(F)cc4)nn23)cc1 [compound 1, 4-[6-[(4-fluorophenyl)methyl]imidazo[1,2-b]pyridazin-3-yl]benzamide] | 42.8 ± 6.8 | 1.81 | 5 to 20 | 48.9 ± 7.2 | 20 to 50 | 70.7 | 1.24 | 2.03 | significantly increased uptake of 2-NBDG | 2.45 | 1.57 |  |  |  |  |  |
| COc1cc(-c2ccc3ncc(-c4cccnc4)n3n2)cc(OC)c1OC [compound 10, 3-(3-pyridyl)-6-(3,4,5-trimethoxyphenyl)imidazo[1,2-b]pyridazine] |  |  |  | 18.2 ± 3.5 | 20 to 50 | 89.8 |  |  |  | 1.55 | 1.14 | 60.2 ± 8.9 | 60.2 ± 8.9 | 3.04 | 1.66 | 2.68 |
